Experimental data from article PMC8379219 (Nature Communications, 2021).
Values belong to the compound of their own block, whether it stands above or below them.

Columns and labels:
SERT = conditions: cited from earlier work
SERT WT = SERT WT (Homo sapiens, UniProt P31645); experiment: [3H]IMI dissociation rate assay (allosteric potency), COS-7 membranes; format: binding; parameters: expressed in transfected cells; host or cells: COS-7;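 further: radioligand pre-bound 30 min at room temperature to equilibrium, then dissociation followed over 5–70 min, ended by filtration through GF/B filters, at least three independent experiments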
SERT F335A = SERT F335A (Homo sapiens, UniProt P31645, F335A); experiment: [3H]5-HT transport, COS-7 cells, S2 mutant F335A; format: cell-based
Method: (§1) All determinations were performed in triplicate.

SERT Q332A = SERT Q332A (Homo sapiens, UniProt P31645, Q332A); experiment: [3H]5-HT transport, COS-7 cells, S2 mutant Q332A; format: cell-based
Method: as §1

SMILES: NC(=O)c1ccc2c(c1)CO[C@@]2(CCCN1CCC(c2ccc3ccc(=O)[nH]c3c2)CC1)c1ccc(F)cc1 [Lu AF60097]
Allosteric potency (SERT; [3H]IMI bound to S1): ~ 30 nM

SMILES: CN(C)CCCN1c2ccccc2CCc2ccccc21 [IMI, Imipramine]
Slope for [3H]IMI dissociation (SERT WT): 0.528 ± 0.012 min⁻¹
Allosteric properties at SERT (SERT; ref Plenge et al 1990 Eur J Pharmacol): very weak allosteric properties

5-HT VMAX (SERT F335A): 2368 ± 394 pmol/min/10^5 cells
5-HT VMAX (SERT Q332A): 1151 ± 64 pmol/min/10^5 cells
SMILES: NCCc1c[nH]c2ccc(O)cc12 [5-HT, 5-[1,2-^3H]hydroxytryptamine]
